Values quoted from earlier work, collected in patent US6479541B1, “Amiodarone-containing parenteral administration” (Baxter International, priority 2000, dated 2002).

Conditions: dogs, intravenous; literature Gough et al. 1982

Substance: polysorbate 80 [Tween 80]
- cardiodepression / hypotension: associated with cardiodepression, causing hypotension
